Laboratory results from patent US6576190B1, “Method and apparatus for sterilizing and disinfecting bedclothes using ultraviolet rays and ozone” (Bioneer Corporation, priority 1999, dated 2003).

Assays:
[1] = test system: Candida albicans KCTC 7965; test: Test for sterilizing microorganisms, ozone exposure of agar culture; format: cell-based; conditions: C. albicans, ozone 70 ppm, humidity 50%, no direct UV
Source text: (§1) The microorganisms used for the sterilization test were Escherichia coli DH12S, Staphylococcus aureus KCTC 1621 and Candida albicans KCTC 7965, which are known as pathogenic microorganisms. An UV/O3 lamp ([…]) was used as the generator for generating ultraviolet rays and ozone.
(§2) Each of the microorganisms was cultivated on appropriate culture medium used commonly: Escherichia coli was cultivated on LB culture medium, Staphylococcus aureus was cultivated on Tryptic Soy culture medium; and Candida albicans was cultivated on YM culture medium. A sample of the microorganism was prepared as follows: After each of the microorganisms was cultivated on agar culture medium, one colony was taken. And then the colony was inoculated into broths of 5 ml, which was cultivated for two hours. The sample prepared as mentioned above was kept in cold storage for the following use. The broths used for cultivation were diluted gradually from an undiluted solution to 10-8, and then they were painted over the agar culture medium. One control was obtained from each of the diluted samples, and seven samples for test were obtained from each of the diluted samples. The control and samples were subject to pre-incubation in the incubator with the temperature of 37° C. for 30 minutes, which was used for sterilization test.
(§3) The concentration of the ozone in the sterilizing and disinfecting room reached 50 ppm within two or three minutes. And the concentration of the ozone was adjusted so that it was maintained to 70 ppm.
(§4) The humidity was maintained to 50%. The agar culture medium was placed on several position where it was not exposed to the ultraviolet rays and it had good ventilation. One agar culture medium corresponding to the bedclothes as a test sample was taken every ten minutes after the generator for generating the ultraviolet rays and the ozone was operated. The agar culture medium was cultivated together with the control sample in the incubator with the temperature of 37° C. for 48 hours. […] The number of the real microorganisms and the number of the surviving microorganisms were added together taking the number of the colony and the dilution rate of each sample into account. The test as mentioned above was repeated three times for the purpose of obtaining the statistical effectiveness.

Escherichia coli DH12S = test: as above; format: cell-based; conditions: E. coli, ozone 70 ppm, humidity 50%, no direct UV
Source text: as §1, §2, §3, §4

[2] = test system: Staphylococcus aureus KCTC 1621; test: as above; format: cell-based; conditions: S. aureus, ozone 70 ppm, humidity 50%, no direct UV
Source text: as §1, §2, §3, §4

[3] = test system: house dust mites (Dermatophagoides farinae, Dermatophagoides pterohyssinus and Tyrophagus putrescentiae mixed); test: Test for killing mites; format: in vivo; conditions: ozone 50 ppm, humidity 72%, 2 hours, no direct UV
Source text: Mites used for test was the house dust mites (samples containing Dermatophagoides farinae, Dermatophagoides pterohyssinus and Tyrophagus putrescentiae mixed up one another were used) which were generally known as primary cause of allergy, which was distributed from the parasitology class of the medical college of Yonsei University in Korea. After the opening the lid of the tube containing twenty mites, the mites were exposed to the environment with the ozone of 50 ppm and the humidity of 72% for 2 hours while the mites were not exposed directly to the ultraviolet rays. After exposition of the mites to the ozone for a given time period, the number of the surviving mites and the number of the dead mites were counted by means of a microscopic examination.

O=[O+][O-] [ozone]
Number of surviving microorganisms (surviving colonies) ([1]; exposure 10 min.): 12,400
Number of surviving microorganisms (surviving colonies) ([1]; exposure 20 min.): 2,840
Number of surviving microorganisms (surviving colonies) ([1]; exposure 30 min.): 960
Number of surviving microorganisms (surviving colonies) ([1]; exposure 40 min.): 388
Number of surviving microorganisms (surviving colonies) ([1]; exposure 50 min.): 192
Number of surviving microorganisms (surviving colonies) ([1]; exposure 60 min.): 118
Number of surviving microorganisms (surviving colonies) (Escherichia coli DH12S; exposure 10 min.): 11,000
Number of surviving microorganisms (surviving colonies) (Escherichia coli DH12S; exposure 20 min.): 2,700
Number of surviving microorganisms (surviving colonies) (Escherichia coli DH12S; exposure 30 min.): 559
Number of surviving microorganisms (surviving colonies) (Escherichia coli DH12S; exposure 40 min.): 270
Number of surviving microorganisms (surviving colonies) (Escherichia coli DH12S; exposure 50 min.): 101
Number of surviving microorganisms (surviving colonies) (Escherichia coli DH12S; exposure 60 min.): 52
Number of surviving microorganisms (surviving colonies) ([2]; exposure 10 min.): 1,220,000
Number of surviving microorganisms (surviving colonies) ([2]; exposure 20 min.): 101,000
Number of surviving microorganisms (surviving colonies) ([2]; exposure 30 min.): 9,100
Number of surviving microorganisms (surviving colonies) ([2]; exposure 40 min.): 1,260
Number of surviving microorganisms (surviving colonies) ([2]; exposure 50 min.): 345
Number of surviving microorganisms (surviving colonies) ([2]; exposure 60 min.): 96
Killing of young mites [3]: all of the young mites were killed
State of surviving large mites [3]: a few surviving large mites were not able to be active normally, which were dead as times went by
Number of dead mites ([3]; twenty mites, microscopic examination): most of the mites (for example, seventeen mites) were killed
